Measurements reported in patent US20110130380A1, “Heteroaryl Kinase Inhibitors” (priority 2009, published 2011).

Experiments:
neointima formation = details: rats; cited from earlier work
Cdk9/cyclinT1 = Cdk9/cyclinT1 (Homo sapiens, UniProt P50750); assay: Cdk9/cyclinT1 IMAP Protocol (fluorescence polarization kinase assay); details: ATP 6 uM
[1] = Cdk9_cyclinT1_IC50, Table V, generated using one of the two Cdk9/cyclinT1 assays (IMAP or Alpha Screen), not stated which

Sequence of Cdk9/cyclinT1 (P50750 whole entry): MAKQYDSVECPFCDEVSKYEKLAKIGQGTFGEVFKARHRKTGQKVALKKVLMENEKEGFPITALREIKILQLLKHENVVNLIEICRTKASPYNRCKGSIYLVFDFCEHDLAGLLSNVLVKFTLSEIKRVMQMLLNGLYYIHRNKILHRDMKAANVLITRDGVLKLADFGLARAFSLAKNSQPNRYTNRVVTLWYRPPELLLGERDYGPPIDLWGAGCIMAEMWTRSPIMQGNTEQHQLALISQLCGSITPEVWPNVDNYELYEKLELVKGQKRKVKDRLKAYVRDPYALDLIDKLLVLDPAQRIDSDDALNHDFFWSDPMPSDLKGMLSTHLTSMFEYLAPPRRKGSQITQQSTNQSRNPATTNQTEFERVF
Sequence of Cdk9/cyclinT1 (O60563 whole entry partner): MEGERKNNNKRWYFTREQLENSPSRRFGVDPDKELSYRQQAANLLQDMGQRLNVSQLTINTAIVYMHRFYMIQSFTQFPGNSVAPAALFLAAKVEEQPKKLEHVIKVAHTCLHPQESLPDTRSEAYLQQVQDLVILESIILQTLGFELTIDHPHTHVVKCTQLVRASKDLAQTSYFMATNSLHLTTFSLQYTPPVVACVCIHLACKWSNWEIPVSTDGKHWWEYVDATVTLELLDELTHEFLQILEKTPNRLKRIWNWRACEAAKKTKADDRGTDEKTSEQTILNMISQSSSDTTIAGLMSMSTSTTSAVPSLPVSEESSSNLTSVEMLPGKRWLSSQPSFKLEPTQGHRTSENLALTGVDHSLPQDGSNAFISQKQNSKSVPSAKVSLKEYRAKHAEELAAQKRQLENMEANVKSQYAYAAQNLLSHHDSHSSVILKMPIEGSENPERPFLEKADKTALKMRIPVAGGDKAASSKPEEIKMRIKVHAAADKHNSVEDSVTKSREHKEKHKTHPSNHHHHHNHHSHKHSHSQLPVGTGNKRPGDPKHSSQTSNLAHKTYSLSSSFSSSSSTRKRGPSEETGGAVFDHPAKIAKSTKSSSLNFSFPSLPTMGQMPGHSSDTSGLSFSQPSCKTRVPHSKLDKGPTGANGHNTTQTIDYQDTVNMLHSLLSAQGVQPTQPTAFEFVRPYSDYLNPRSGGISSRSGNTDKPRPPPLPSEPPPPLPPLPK

| SMILES | IC50 (Cdk9/cyclinT1; [1]) | further results |
| --- | --- | --- |
| COc1ccc(CNc2nc(N(CCO)CCO)nc3c2ncn3C(C)C)cc1 [CVT-313] | – | inhibition of neointima formation (neointima formation): greater than 80% |
| COC1(CNc2nc(-c3cc(NC(=O)[C@@H]4CCCNC4)ncc3Cl)ccc2F)CCOCC1 [Example 248, (R)-Piperidine-3-carboxylic acid {5′-chloro-5-fluoro-6-[(4-methoxy-tetrahydro-pyran-4-ylmethyl)-amino]-[2,4′]bipyridinyl-2′-yl}-amide] | 3 nM | – |
| Cc1ncc(-c2cc(NC(=O)C(C)C)ncc2Cl)cc1NCC1CCOCC1 [Example 310, N-{5′-Chloro-6-methyl-5-[(tetrahydro-pyran-4-ylmethyl)-amino]-[3,4′]bipyridinyl-2′-yl}-isobutyramide] | – | IC50 (Cdk9/cyclinT1; Cdk9_cyclinT1_IC50, generated using one of the two Cdk9/cyclinT1 assays (IMAP or Alpha Screen), not specified per value): 147 nM |
| CS(=O)(=O)N1CCC[C@H](C(=O)Nc2cc(-c3cccc(NCC4CCCOC4)n3)c(Cl)cn2)C1 (stereo partly drawn) [Example 81, (S)-1-Methanesulfonyl-piperidine-3-carboxylic acid {5′-chloro-6-[(tetrahydro-pyran-3-ylmethyl)-amino]-[2,4′]bipyridinyl-2′-yl}-amide] | < 8 nM | – |
| CNc1cccc(-c2cc(NC(=O)[C@@H]3CCCNC3)ncc2Cl)n1 [Example 21, (R)-Piperidine-3-carboxylic acid (5′-chloro-6-methylamino-[2,4′]bipyridinyl-2′-yl)-amide] | 76 nM | – |
| CC[C@H]1CC[C@H](C(=O)Nc2cc(-c3ccc(F)c(NCC4CCOCC4)n3)c(Cl)cn2)CN1 (single isomer, unassigned) [Example 257] | 5 nM | – |
| O=C(Nc1cc(-c2nc(NCC3CCOCC3)ccc2Cl)ccn1)[C@@H]1CCCNC1 [Example 167, (R)-Piperidine-3-carboxylic acid {3-chloro-6-[(tetrahydro-pyran-4-ylmethyl)-amino]-[2,4′]bipyridinyl-2′-yl}-amide] | 4 nM | – |

Now from value to molecule, other results behind:

| IC50 (Cdk9/cyclinT1; [1]) | SMILES | further results |
| --- | --- | --- |
| 11 nM | O=C(Nc1cc(-c2cccc(NCC3CCOCC3)n2)c(Cl)cn1)[C@@H]1CC[C@H](C(F)(F)F)NC1 (racemic) [Example 160, (3R,6R)-/(3S,6S)-6-Trifluoromethyl-piperidine-3-carboxylic acid {5′-chloro-6-[(tetrahydro-pyran-4-ylmethyl)-amino]-[2,4′]bipyridinyl-2′-yl}-amide] | – |
| 7 nM | COC[C@H]1CC[C@H](C(=O)Nc2cc(-c3cccc(NCC4CCOCC4)n3)c(Cl)cn2)CN1 (single isomer, unassigned) [Example 236] | – |
| < 8 nM | CC1(C)C[C@H](CNc2cccc(-c3cc(NC(=O)[C@H]4CNCCO4)ncc3Cl)n2)CCO1 (single isomer, unassigned) [Example 130] | – |
| 3 nM | C[C@@H]1CC(CNc2cccc(-c3cc(NC(=O)C4CNCCOC4)ncc3Cl)n2)C[C@H](C)O1 (stereo partly drawn) [Example 203, [1,4]Oxazepane-6-carboxylic acid {5′-chloro-6-[((2R,6S)-2,6-dimethyl-tetrahydro-pyran-4-ylmethyl)-amino]-[2,4′]bipyridinyl-2′-yl}-amide] | – |
| 6 nM | O=C(Nc1cc(-c2cccc(NCC3CCOCC3)n2)c(Cl)cn1)C1CNCC(F)C1 (stereo not drawn) [Example 168, 5-Fluoro-piperidine-3-carboxylic acid {5′-chloro-6-[(tetrahydro-pyran-4-ylmethyl)-amino]-[2,4′]bipyridinyl-2′-yl}-amide] | – |
| 419 nM | COC(=O)N1CCC[C@@H](C(=O)Nc2cc(-c3cccc(NCC4CCOCC4)n3)c(Cl)cn2)C1 [Example 84, (R)-3-{5′-Chloro-6-[(tetrahydro-pyran-4-ylmethyl)-amino]-[2,4′]bipyridinyl-2′-ylcarbamoyl}-piperidine-1-carboxylic acid methyl ester] | – |
| 14 nM | COC[C@@H]1CC[C@H](C(=O)Nc2cc(-c3cccc(NCC4CCOCC4)n3)c(Cl)cn2)CN1 (racemic) [Example 220, (3S,6S)-/(3R,6R)-6-Methoxymethyl-piperidine-3-carboxylic acid {5′-chloro-6-[(tetrahydro-pyran-4-ylmethyl)-amino]-[2,4′]bipyridinyl-2′-yl}-amide] | – |
| 9 nM | C[C@@H]1CNC[C@H](C(=O)Nc2cc(-c3cccc(NCC4CCOCC4)n3)c(Cl)cn2)C1 (racemic) [Example 125, (3R,5S)-/(3S,5R)-5-Methyl-piperidine-3-carboxylic acid {5′-chloro-6-[(tetrahydro-pyran-4-ylmethyl)-amino]-[2,4′]bipyridinyl-2′-yl}-amide] | – |
| 1 nM | C[C@@H]1CC[C@@H](C(=O)Nc2cc(-c3cccc(NC[C@H]4CCOC(C)(C)C4)n3)c(Cl)cn2)CN1 (single isomer, unassigned) [Example 244] | – |
| 18 nM | C[C@H]1CC[C@@H](C(=O)Nc2cc(-c3cccc(NCC4CCOCC4)n3)c(Cl)cn2)CN1 (racemic) [Example 126, (3R,6S)-/(3S,6R)-6-Methyl-piperidine-3-carboxylic acid {5′-chloro-6-[(tetrahydro-pyran-4-ylmethyl)-amino]-[2,4′]bipyridinyl-2′-yl}-amide] | – |
| < 8 nM | CO[C@H]1CNC[C@@H]1C(=O)Nc1cc(-c2cccc(NCC3CCOCC3)n2)c(Cl)cn1 [Example 138, (3S,4R)-4-Methoxy-pyrrolidine-3-carboxylic acid {5′-chloro-6-[(tetrahydro-pyran-4-ylmethyl)-amino]-[2,4′]bipyridinyl-2′-yl}-amide] | – |
